According to article PMC11995724, “Antibiotic target discovery by integrated phenotypic and activity-based profiling of electrophilic fragments” (Cell chemical biology, 2025):
Structures can show the parent of a compound that is named as a salt.

Experiment: in vitro
Conditions: human, hek293t cells

Structure (SMILES) | viability at 48 h, 25 µM [%]
O=C(CCl)c1ccc(Oc2ccccc2)cc1 [10-G20, 2-chloro-1-(4-phenoxyphenyl)ethan-1-one] | 0.299
C=CC(=O)NCc1ccc(C(=O)N2CCCC(c3nnc[nH]3)C2)cc1 (centres unmarked) [3-E19, N-({4-[3-(4H-1,2,4-triazol-3-yl)piperidine-1-carbonyl]phenyl}methyl)prop-2-enamide] | 34.3
CCC(NC(=O)CCl)c1ccc(C)cc1 (centres unmarked) [4-K17, 2-chloro-N-[1-(4-methylphenyl)propyl]acetamide] | 2.62
C=CC(=O)N1CCC(C(=O)N(C)C(C)CC(N)=O)CC1 (centres unmarked) [2-K20, 3-{N-methyl-1-[1-(prop-2-enoyl)piperidin-4-yl]formamido}butanamide] | 88.3
C=CC(=O)NCc1nc2ccccc2c(=O)n1C [3-J10, N-[(3-methyl-4-oxo-3,4-dihydroquinazolin-2-yl)methyl]prop-2-enamide] | 88.6
Cc1nc2n(n1)CCCC2NC(=O)CCl (centres unmarked) [7-F12, 2-chloro-N-{2-methyl-5H,6H,7H,8H-[1,2,4]triazolo[1,5-a]pyridin-8-yl}acetamide] | 58.1
COc1ccc(C=C(C#N)C(=O)Nc2ccc(Cl)cc2Cl)cc1 [8-K03, 2-cyano-N-(2,4-dichlorophenyl)-3-(4-methoxyphenyl)prop-2-enamide] | 104
C=CC(=O)N1CCC(C(=O)N2CCCC(C)(CC)C2)CC1 (centres unmarked) [2-J10, 1-[4-(3-ethyl-3-methylpiperidine-1-carbonyl)piperidin-1-yl]prop-2-en-1-one] | 67.4
C=CC(=O)N1CCNC(=O)C1Cc1nc2ccccc2o1 (centres unmarked) [1-B20, 3-[(1,3-benzoxazol-2-yl)methyl]-4-(prop-2-enoyl)piperazin-2-one] | 82.9
CC(Cl)C(=O)NCCC1(C)OCCO1 (centres unmarked) [7-E17, 2-chloro-N-[2-(2-methyl-1,3-dioxolan-2-yl)ethyl]propanamide] | 82.4
CC(C)C(=O)Nc1ccc(C(=O)C(C)Cl)cc1 (centres unmarked) [10-E08, N-[4-(2-chloropropanoyl)phenyl]-2-methylpropanamide] | 100
C=CC(=O)N(Cc1c(C)cccc1OC)C1CCCCNC1=O (centres unmarked) [1-F09, N-[(2-methoxy-6-methylphenyl)methyl]-N-(2-oxoazepan-3-yl)prop-2-enamide] | 85.8
CC(Cl)C(=O)Nc1cccc2ncccc12 (centres unmarked) [4-M10, 2-chloro-N-(quinolin-5-yl)propanamide] | 97.4
C=CC(=O)N(CC)CC(=O)N1CCc2c(cccc2NC(C)=O)C1 [3-K16, N-[2-(5-acetamido-1,2,3,4-tetrahydroisoquinolin-2-yl)-2-oxoethyl]-N-ethylprop-2-enamide] | 90.5
Cc1cc(C=C(C#N)C(=O)Nc2ccccc2)c(C)n1C1CC1 [8-E14, 2-cyano-3-(1-cyclopropyl-2,5-dimethyl-1H-pyrrol-3-yl)-N-phenylprop-2-enamide] | 91.7
CSc1ccc(C=C(C#N)C(=O)Nc2ccc(C(=O)O)cc2)cc1 [9-M08, 4-{2-cyano-3-[4-(methylsulfanyl)phenyl]prop-2-enamido}benzoic acid] | 118
COc1ccc(C(=O)C(C)Cl)cc1 (centres unmarked) [10-H22, 2-chloro-1-(4-methoxyphenyl)propan-1-one] | 73.6
C=CC(=O)NCC1(OC)CCC(C)CC1 (centres unmarked) [1-P08, N-[(1-methoxy-4-methylcyclohexyl)methyl]prop-2-enamide] | 80.5
O=C(CCl)Nc1ccc(F)c(F)c1F [4-M05, 2-chloro-N-(2,3,4-trifluorophenyl)acetamide] | 0.759
O=C(CCl)N1N=C(c2cccs2)CC1c1ccc(F)cc1 (centres unmarked) [4-O20, 2-chloro-1-[5-(4-fluorophenyl)-3-(thiophen-2-yl)-4,5-dihydro-1H-pyrazol-1-yl]ethan-1-one] | 0.502
C=CC(=O)NCCc1ccn(-c2ccc(F)cc2)n1 [2-P03, N-{2-[1-(4-fluorophenyl)-1H-pyrazol-3-yl]ethyl}prop-2-enamide] | 70.4
C=CC(=O)N(C)Cc1cc2ccccc2o1 [3-I09, N-[(1-benzofuran-2-yl)methyl]-N-methylprop-2-enamide] | 47.1
CNC(=O)c1ccn(C2CCCN(C(=O)CCl)C2)n1 (centres unmarked) [5-I08, 1-[1-(2-chloroacetyl)piperidin-3-yl]-N-methyl-1H-pyrazole-3-carboxamide] | 1.61
CSc1ccccc1NC(=O)C(C)Cl (centres unmarked) [4-M12, 2-chloro-N-[2-(methylsulfanyl)phenyl]propanamide] | 95.2
O=C(CCl)NCc1ccccc1C(F)(F)F [6-K10, 2-chloro-N-{[2-(trifluoromethyl)phenyl]methyl}acetamide] | 2.67
CC(C)CN(C(=O)CCl)C1CCS(=O)(=O)C1 (centres unmarked) [4-D12, 2-chloro-N-(1,1-dioxo-1lambda6-thiolan-3-yl)-N-(2-methylpropyl)acetamide] | 2.44
C=CC(=O)N1CCCC1Cn1c(C)nc2ccccc21 (centres unmarked) [1-J05, 1-{2-[(2-methyl-1H-1,3-benzodiazol-1-yl)methyl]pyrrolidin-1-yl}prop-2-en-1-one] | 149

Structure (SMILES) | viability at 48 h, 25 µM [%]
CC(C)NC(=O)C(C#N)=Cc1ccc(Cl)cc1Cl [9-K07, 2-cyano-3-(2,4-dichlorophenyl)-N-(propan-2-yl)prop-2-enamide] | 49.5
CC(NC(=O)CCl)c1cc(F)ccc1N(C)C (centres unmarked) [5-L11, 2-chloro-N-{1-[2-(dimethylamino)-5-fluorophenyl]ethyl}acetamide] | 9.52
C=CC(=O)N1CCC(C(=O)N2Cc3ccc([N+](=O)[O-])cc3C2)CC1 [2-F04, 1-[4-(5-nitro-2,3-dihydro-1H-isoindole-2-carbonyl)piperidin-1-yl]prop-2-en-1-one] | 82.7
C=CC(=O)NCc1cn(C2CCCC2)nc1C [3-N21, N-[(1-cyclopentyl-3-methyl-1H-pyrazol-4-yl)methyl]prop-2-enamide] | 55.5
N#CC(=Cc1ccco1)C(=O)NS(=O)(=O)N1CCc2ccccc21 [9-J18, 2-cyano-N-(2,3-dihydro-1H-indole-1-sulfonyl)-3-(furan-2-yl)prop-2-enamide] | 116
C=CC(=O)N1CCCN(C(=O)c2ccc(OC)cc2)CC1 [3-A21, 1-[4-(4-methoxybenzoyl)-1,4-diazepan-1-yl]prop-2-en-1-one] | 53.5
COc1ccc(C=C(C#N)C(=O)Nc2ccccc2OC)cc1O [8-J19, 2-cyano-3-(3-hydroxy-4-methoxyphenyl)-N-(2-methoxyphenyl)prop-2-enamide] | 107
C=CC(=O)Nc1ccc(C)cc1S(=O)(=O)N1CCOCC1 [1-O13, N-[4-methyl-2-(morpholine-4-sulfonyl)phenyl]prop-2-enamide] | 74.9
CC(Cl)C(=O)N1CCC(n2ncc3ccccc32)C1 (centres unmarked) [7-K04, 2-chloro-1-[3-(1H-indazol-1-yl)pyrrolidin-1-yl]propan-1-one] | 92.4
CC(Cl)C(=O)NC1CCCN(S(=O)(=O)N2CCOCC2)C1 (centres unmarked) [6-L03, 2-chloro-N-[1-(morpholine-4-sulfonyl)piperidin-3-yl]propanamide] | 111
C=CC(=O)NCC1CCCc2nccn21 (centres unmarked) [2-B15, N-({5H,6H,7H,8H-imidazo[1,2-a]pyridin-5-yl}methyl)prop-2-enamide] | 76.8
CC(Cl)C(=O)NCc1cnn2ccccc12 (centres unmarked) [7-M13, 2-chloro-N-({pyrazolo[1,5-a]pyridin-3-yl}methyl)propanamide] | 104
C=CC(=O)N(Cc1cnn(C2CCC2)c1)C1CCCc2occc21 (centres unmarked) [2-G07, N-[(1-cyclobutyl-1H-pyrazol-4-yl)methyl]-N-(4,5,6,7-tetrahydro-1-benzofuran-4-yl)prop-2-enamide] | 103
N#CC(=Cc1ccc(F)cc1)C(=O)Nc1cccc2ncccc12 [9-C21, 2-cyano-3-(4-fluorophenyl)-N-(quinolin-5-yl)prop-2-enamide] | 118
C=CC(=O)NCCC(=O)Nc1c(C)c(C)nn1C [2-G12, N-{2-[(1,3,4-trimethyl-1H-pyrazol-5-yl)carbamoyl]ethyl}prop-2-enamide] | 93
CC(Cl)C(=O)N(Cc1nnc(-c2ccccc2Cl)o1)C1CC1 (centres unmarked) [5-B17, 2-chloro-N-{[5-(2-chlorophenyl)-1,3,4-oxadiazol-2-yl]methyl}-N-cyclopropylpropanamide] | 134
COc1cccc(NC(=O)C(C#N)=Cc2c[nH]c(-c3ccccc3)n2)c1 [9-C20, 2-cyano-N-(3-methoxyphenyl)-3-(2-phenyl-1H-imidazol-4-yl)prop-2-enamide] | 108
CCn1cc(NC(=O)CCl)cn1 [6-I15, 2-chloro-N-(1-ethyl-1H-pyrazol-4-yl)acetamide hydrochloride] | 10.5
CN(C(=O)CCl)C1CCCCC1 [5-N07, 2-chloro-N-cyclohexyl-N-methylacetamide] | 0.964
C=CC(=O)NC(Cc1ccccc1)c1ncco1 (centres unmarked) [1-B07, N-[1-(1,3-oxazol-2-yl)-2-phenylethyl]prop-2-enamide] | 118
N#CC(=Cc1c(Cl)cccc1Cl)C(=O)NCCc1ccccc1 [8-B14, 2-cyano-3-(2,6-dichlorophenyl)-N-(2-phenylethyl)prop-2-enamide] | 2
C=CC(=O)N1CCC(C(=O)N2CCCCC(SCC)C2)CC1 (centres unmarked) [2-P10, 1-{4-[3-(ethylsulfanyl)azepane-1-carbonyl]piperidin-1-yl}prop-2-en-1-one] | 108
CCCn1c(C)cc(C=C(C#N)C(=O)Nc2cccc(F)c2)c1C [8-L19, 2-cyano-3-(2,5-dimethyl-1-propyl-1H-pyrrol-3-yl)-N-(3-fluorophenyl)prop-2-enamide] | 103
C=CC(=O)N[C@H]1CCN(S(=O)(=O)c2ccccc2)C1 [3-P11, N-[(3S)-1-(benzenesulfonyl)pyrrolidin-3-yl]prop-2-enamide] | 54.4
Cc1cc(C)c(NC(=O)C(C#N)=Cc2ccc(C)o2)c(C)c1 [9-I17, 2-cyano-3-(5-methylfuran-2-yl)-N-(2,4,6-trimethylphenyl)prop-2-enamide] | 94.3
C=CC(=O)N1CCC(C(=O)NCCC2(O)CCCOC2)CC1 (centres unmarked) [2-B04, N-[2-(3-hydroxyoxan-3-yl)ethyl]-1-(prop-2-enoyl)piperidine-4-carboxamide] | 70
